Positions of bridges follow the written chain, without caps; N, C: chain ends. No end group written: not given here.
Experiments:
[1] = test system: 5T33MM cells; assay: In vitro cell binding of FITC-conjugated peptides by flow cytometry; type: cell-based, murine; settings: 10 min on ice, Fig. 2b
Procedure: (§1) Cultured 5T33MM, A20 and IM9 cells as well as primary B cells from MM patient and healthy donor were washed and suspended at the density of 10^6 cells/ml in FACs Flow Buffer [BD Biosciences]. All subsequent washing and incubations were carried out in the same buffer on ice. Cells were incubated with 20 μg/ml of FITC-conjugated peptides for 10 min on ice, then washed twice, and analyzed by flow cytometry [FACSCalibur, BD Biosciences]. For peptide co-localization with the BCR complex, 5T33MM cells (10^6 cells/ml) were stained with FITC-conjugated peptides [10 μg/ml) and goat anti-mouse IgG-Alexa fluor 568 [Thermo Fisher]. After extensive washing, cells were mounted under cover slip, and visualized by confocal microscopy [Leica TC-SP2].

[2] = test system: 5T33MM-derived exosomes; assay: Exosome immunocapture (anti-CD63 SMNPs) and flow cytometry, 5T33MM-derived exosomes; type: binding, murine; settings: exosomes from cell supernatant trapped on anti-CD63 SMNPs; FITC-conjugated reagent; Fig. 4
Procedure: (§2) Exosomes were isolated from 250 μL of blood and 10 mL of cell supernatant respectively using ExoQuick solutions [System Biosciences – SBI, Palo Alto, California, US] and ExoQuick-TC™ [System Biosciences], according to the manufacturer’s protocol. Briefly, serum and cell supernatants were centrifuged at 3000×g for 15 min to remove cells and cell debris. The supernatant was transferred to a sterile vessel and the recommended volume of ExoQuick solution or ExoQuick-TC™ were added to the bio-fluids. After brief vortex, samples were stored 30 min at 4 °C and then centrifuged at 1500 x g for 30 min at room temperature. After removing the supernatant, the pellet was suspended in nuclease-free water.
(§3) Isolated exosomes from serum or cell supernatants were suspended in 1 ml of 1X PBS. Exosome aliquots (500 μl) were labeled with 50 μl of 10X Exo-Red [SBI] according to manufacturer’s instructions. The exosomes were re-isolated using the addition of 100 μl ExoQuick followed by precipitation for 30 min at +4 °C. The labeled exosome pellet was suspended in 500 μl 1X PBS and stained with CD63-coupled magnetic beads provided by SBI’s Exo-Flow IP kit [SBI] and with the FITC-conjugated peptides.

[3] = test system: mIg-5T33MM; assay: ELISA binding of biotin-conjugated Id-peptides to 5T33MM Ig (Scatchard plot analysis); set-up: species or system murine; settings: biotinylated-p5 peptide at different concentrations; Fig. 2a
Procedure: (§4) Single strand DNA (ssDNA) was extracted from the selected phage clones by phenol/chlorophorm purification followed by ethanol precipitation. DNA fragment codifying the peptide ligand was amplified by PCR and sequenced to get the primary structure of amino acid sequence for the peptide synthesis. Synthesized peptides were purchased from Caslo Laboratory ApS [Caslo, Kongens Lyngby, DE]. The specific binding of peptides to the 5T33MM sIgG was analyzed by ELISA, as follows. Streptavidin coated 96 well plates were washed extensively and supplemented with biotin-conjugated peptides by 1 h-incubation at 37 °C; then, after washing and blocking with blocking solution (1X PBS, 0.05% Tween-20, 5% milk), aliquots of 5T33MM sIgG (1 μg/ml in blocking buffer) were added overnight at 4 °C. Wells were extensively washed and coated with the anti-mouse IgG (Fc-specific) alkaline phosphatase-conjugated [Sigma Aldrich] for 1 h at 37 °C, incubated with the alkaline phosphatase substrate [Sigma Aldrich], and analyzed by an ELISA reader at 405 nm [Labsystems multiscan MS].
(§5) The random peptide insert was flanked by a pair of cysteines resulting in cyclized peptide exposed on M13 coat protein. After three rounds of affinity selection, single phage clones were purified and tested by enzyme-linked immunosorbent assay (ELISA) for binding to the 5T33MM Igs or control Igs, as previously described. […]

[4] = test system: A20 secreted IgG; assay: ELISA binding of biotinylated peptide to control A20 secreted IgG; set-up: species or system murine; settings: biotinylated-p5 peptide; control Ig; Fig. 2a
Procedure: as §4, §5

[5] = test system: polyclonal mouse Igs; assay: ELISA binding of biotinylated peptide to control polyclonal mouse Igs; settings: biotinylated-p5 peptide, Fig. 2a
Procedure: as §4, §5

[6] = test system: 5T33MM cells; assay: Confocal microscopy of FITC-conjugated peptide co-localization with the BCR complex; type: cell-based, murine; settings: FITC-conjugated p5 peptide, non-permeabilized cells, anti-mouse IgG co-staining; Fig. 2c
Procedure: as §1

[7] = test system: IM9-derived exosomes; assay: Exosome immunocapture (anti-CD63 SMNPs) and flow cytometry, IM9-derived exosomes; type: binding, human; settings: exosomes trapped on anti-CD63 SMNPs; FITC-conjugated p5 peptide; Fig. 4
Procedure: as §2, §3

[8] = test system: A20-derived exosomes; assay: Exosome immunocapture (anti-CD63 SMNPs) and flow cytometry, A20-derived exosomes; type: binding, murine; settings: exosomes trapped on anti-CD63 SMNPs; FITC-conjugated p5 peptide; Fig. 4
Procedure: as §2, §3

Row | Sequence | recognition of 5T33MM target cells by flow cytometry [1] | detection of 5T33MM-derived exosomes by flow cytometry [2] | reactivity to the cognate antibody (5T33MM-Igs) by ELISA [3] | reactivity against A20 secreted IgG by ELISA [4] | reactivity against polyclonal mouse Igs by ELISA [5] | localization on 5T33MM cells by confocal microscopy [6] | detection of exosomes released from human IM9 multiple myeloma cells [7] | detection of exosomes released from murine A20 B-lymphoma cells [8]
1 | CGGNGPGLC [pCNT, irrelevant peptide (…) included as a negative control, FITC-conjugated, reference compound] | did not | undetected | – | – | – | – | – | –
2 | CIGNSNTLC (disulfide 1-9 (inferred)) [p5, used biotinylated or FITC-conjugated] | recognized 5T33MM target cells in a dose-dependent manner | equally detected | concentration-dependent specific reactivity | did not react | did not react | bound to the 5T33MM cell surface and also localized inside the cells | did not detect | did not detect

From paper PMC5640902, “Monitoring multiple myeloma by idiotype-specific peptide binders of tumor-derived exosomes” (Molecular Cancer, 2017)
